Measurements: patent publication US10695337B2, “Piperidin-4-yl azetidine derivatives as JAK1 inhibitors” (Incyte Corporation, priority 2010, dated 2020)

Molecular target: human JAK1 (a.a. 837-1142)
Test: In vitro JAK kinase assay (HTRF, phosphorylation of a biotinylated peptide), JAK1
Assay type: biochemical
Conditions: measured at 1 mM ATP; JAK2 IC50 / JAK1 IC50
Procedure, shortened: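 Phosphorylation of a biotinylated peptide by purified His-tagged JAK catalytic domains (insect-cell baculovirus expression) ran 1 hr at room temperature. After stopping with EDTA, Eu-Py20 and SA-APC were bound for 40 minutes and HTRF measured.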

| SMILES | IC50 Ratio JAK2/JAK1 |
| --- | --- |
| COc1cccc(F)c1CN1CCC(N2CC(CC#N)(n3cc(-c4ncnc5[nH]ccc45)cn3)C2)CC1 [Example 218, {1-[1-(2-fluoro-6-methoxybenzyl)piperidin-4-yl]-3-[4-(7H-pyrrolo[2,3-d]pyrimidin-4-yl)-1H-pyrazol-1-yl]azetidin-3-yl}acetonitrile] | 2.6 |
| N#CCC1(n2cc(-c3ncnc4[nH]ccc34)cn2)CN(C2CCN(Cc3cccc(Cl)c3Cl)CC2)C1 [Example 219, {1-[1-(2,3-dichlorobenzyl)piperidin-4-yl]-3-[4-(7H-pyrrolo[2,3-d]pyrimidin-4-yl)-1H-pyrazol-1-yl]azetidin-3-yl}acetonitrile] | 2.4 |
| N#CCC1(n2cc(-c3ncnc4[nH]ccc34)cn2)CN(C2CCN(Cc3ccc(F)c(C#N)c3)CC2)C1 [Example 220, 5-[(4-{3-(cyanomethyl)-3-[4-(7H-pyrrolo[2,3-d]pyrimidin-4-yl)-1H-pyrazol-1-yl]azetidin-1-yl}piperidin-1-yl)methyl]-2-fluorobenzonitrile] | 4.4 |
| N#CCC1(n2cc(-c3ncnc4[nH]ccc34)cn2)CN(C2CCN(Cc3ccc(-c4conn4)cc3)CC2)C1 [Example 221, {1-{1-[4-(1,2,3-oxadiazol-4-yl)benzyl]piperidin-4-yl}-3-[4-(7H-pyrrolo[2,3-d]pyrimidin-4-yl)-1H-pyrazol-1-yl]azetidin-3-yl}acetonitrile] | 1.3 |
| N#CCC1(n2cc(-c3ncnc4[nH]ccc34)cn2)CN(C2CCN(Cc3cccc(C#N)c3)CC2)C1 [Example 223, 3-[(4-{3-(cyanomethyl)-3-[4-(7H-pyrrolo[2,3-d]pyrimidin-4-yl)-1H-pyrazol-1-yl]azetidin-1-yl}piperidin-1-yl)methyl]benzonitrile] | 5.9 |
| COc1nc(CN2CCC(N3CC(CC#N)(n4cc(-c5ncnc6[nH]ccc56)cn4)C3)CC2)ccc1C#N [Example 224, 6-[(4-{3-(cyanomethyl)-3-[4-(7H-pyrrolo[2,3-d]pyrimidin-4-yl)-1H-pyrazol-1-yl]azetidin-1-yl}piperidin-1-yl)methyl]-2-methoxynicotinonitrile] | 2.4 |
| N#CCC1(n2cc(-c3ncnc4[nH]ccc34)cn2)CN(C2CCN(Cc3cc(Br)nc(Br)c3)CC2)C1 [Example 225, {1-{1-[(2,6-dibromopyridin-4-yl)methyl]piperidin-4-yl}-3-[4-(7H-pyrrolo[2,3-d]pyrimidin-4-yl)-1H-pyrazol-1-yl]azetidin-3-yl}acetonitrile] | 3.8 |
| N#CCC1(n2cc(-c3ncnc4[nH]ccc34)cn2)CN(C2CCN(Cc3ccnc(Br)c3)CC2)C1 [Example 226, {1-{1-[(2-bromopyridin-4-yl)methyl]piperidin-4-yl}-3-[4-(7H-pyrrolo[2,3-d]pyrimidin-4-yl)-1H-pyrazol-1-yl]azetidin-3-yl}acetonitrile] | 1.9 |
| N#CCC1(n2cc(-c3ncnc4[nH]ccc34)cn2)CN(C2CCN(Cc3c(F)cccc3Cl)CC2)C1 [Example 227, {1-[1-(2-chloro-6-fluorobenzyl)piperidin-4-yl]-3-[4-(7H-pyrrolo[2,3-d]pyrimidin-4-yl)-1H-pyrazol-1-yl]azetidin-3-yl}acetonitrile] | 7.9 |
| N#CCC1(n2cc(-c3ncnc4[nH]ccc34)cn2)CN(C2CCN(Cc3c(F)ccc(Cl)c3F)CC2)C1 [Example 228, {1-[1-(3-chloro-2,6-difluorobenzyl)piperidin-4-yl]-3-[4-(7H-pyrrolo[2,3-d]pyrimidin-4-yl)-1H-pyrazol-1-yl]azetidin-3-yl}acetonitrile] | 3.9 |
| N#CCC1(n2cc(-c3ncnc4[nH]ccc34)cn2)CN(C2CCN(Cc3ccc(C#N)c(F)c3)CC2)C1 [Example 229, 4-[(4-{3-(cyanomethyl)-3-[4-(7H-pyrrolo[2,3-d]pyrimidin-4-yl)-1H-pyrazol-1-yl]azetidin-1-yl}piperidin-1-yl)methyl]-2-fluorobenzonitrile] | 6.4 |
| Cc1onc(-c2ccccc2)c1CN1CCC(N2CC(CC#N)(n3cc(-c4ncnc5[nH]ccc45)cn3)C2)CC1 [Example 230, {1-{1-[(5-methyl-3-phenylisoxazol-4-yl)methyl]piperidin-4-yl}-3-[4-(7H-pyrrolo[2,3-d]pyrimidin-4-yl)-1H-pyrazol-1-yl]azetidin-3-yl}acetonitrile] | 9.3 |
| N#CCC1(n2cc(-c3ncnc4[nH]ccc34)cn2)CN(C2CC3CCC(C2)N3Cc2c(F)ccc(F)c2Cl)C1 (stereo not drawn) [Example 241, {1-[8-(2-Chloro-3,6-difluorobenzyl)-8-azabicyclo[3.2.1]oct-3-yl]-3-[4-(7H-pyrrolo[2,3-d]pyrimidin-4-yl)-1H-pyrazol-1-yl]azetidin-3-yl}acetonitrile] | 3.8 |

Continued, values first:

| IC50 Ratio JAK2/JAK1 | SMILES |
| --- | --- |
| 5.1 | N#CCC1(n2cc(-c3ncnc4[nH]ccc34)cn2)CN(C2CCN(Cc3ccnc(C(F)(F)F)c3F)CC2)C1 [Example 231, {1-(1-{[3-fluoro-2-(trifluoromethyl)pyridin-4-yl]methyl}piperidin-4-yl)-3-[4-(7H-pyrrolo[2,3-d]pyrimidin-4-yl)-1H-pyrazol-1-yl]azetidin-3-yl}acetonitrile] |
| 0.7 | N#CCC1(n2cc(-c3ncnc4[nH]ccc34)cn2)CN(C2CCN(Cc3cc4ccccc4o3)CC2)C1 [Example 232, {1-[1-(1-benzofuran-2-ylmethyl)piperidin-4-yl]-3-[4-(7H-pyrrolo[2,3-d]pyrimidin-4-yl)-1H-pyrazol-1-yl]azetidin-3-yl}acetonitrile] |
| 2.2 | N#CCC1(n2cc(-c3ncnc4[nH]ccc34)cn2)CN(C2CCN(Cc3cccc(Oc4ccccc4)c3)CC2)C1 [Example 233, {1-[1-(3-phenoxybenzyl)piperidin-4-yl]-3-[4-(7H-pyrrolo[2,3-d]pyrimidin-4-yl)-1H-pyrazol-1-yl]azetidin-3-yl}acetonitrile] |
| 4.2 | N#CCC1(n2cc(-c3ncnc4[nH]ccc34)cn2)CN(C2CCN(Cc3ccc4c(c3)OCCO4)CC2)C1 [Example 234, {1-[1-(2,3-dihydro-1,4-benzodioxin-6-ylmethyl)piperidin-4-yl]-3-[4-(7H-pyrrolo[2,3-d]pyrimidin-4-yl)-1H-pyrazol-1-yl]azetidin-3-yl}acetonitrile] |
| 5.5 | N#CCC1(n2cc(-c3ncnc4[nH]ccc34)cn2)CN(C2CCN(Cc3c(C(F)(F)F)ccc(Cl)c3F)CC2)C1 [Example 236, {1-{1-[3-chloro-2-fluoro-6-(trifluoromethyl)benzyl]piperidin-4-yl}-3-[4-(7H-pyrrolo[2,3-d]pyrimidin-4-yl)-1H-pyrazol-1-yl]azetidin-3-yl}acetonitrile] |
| 2.3 | N#CCC1(n2cc(-c3ncnc4[nH]ccc34)cn2)CN(C2CCN(Cc3c(Cl)cncc3Cl)CC2)C1 [Example 237, {1-{1-[(3,5-dichloropyridin-4-yl)methyl]piperidin-4-yl}-3-[4-(7H-pyrrolo[2,3-d]pyrimidin-4-yl)-1H-pyrazol-1-yl]azetidin-3-yl}acetonitrile] |
| 6.8 | COc1ccc2nc(Cl)c(CN3CCC(N4CC(CC#N)(n5cc(-c6ncnc7[nH]ccc67)cn5)C4)CC3)cc2c1 [Example 238, {1-{1-[(2-chloro-6-methoxyquinolin-3-yl)methyl]piperidin-4-yl}-3-[4-(7H-pyrrolo[2,3-d]pyrimidin-4-yl)-1H-pyrazol-1-yl]azetidin-3-yl}acetonitrile] |
| 2.3 | COc1ccc(CN2CCC(N3CC(CC#N)(n4cc(-c5ncnc6[nH]ccc56)cn4)C3)CC2)c(Cl)c1OC [Example 239, {1-[1-(2-chloro-3,4-dimethoxybenzyl)piperidin-4-yl]-3-[4-(7H-pyrrolo[2,3-d]pyrimidin-4-yl)-1H-pyrazol-1-yl]azetidin-3-yl}acetonitrile] |
| 1.5 | CC1CC(N2CC(CC#N)(n3cc(-c4ncnc5[nH]ccc45)cn3)C2)CCN1Cc1c(F)cccc1Cl (stereo not drawn) [Example 245, {1-[1-(2-chloro-6-fluorobenzyl)-2-methylpiperidin-4-yl]-3-[4-(7H-pyrrolo[2,3-d]pyrimidin-4-yl)-1H-pyrazol-1-yl]azetidin-3-yl}acetonitrile] |
| 7.5 | Cn1nccc1S(=O)(=O)N1CCC(N2CC(CC#N)(n3cc(-c4ncnc5[nH]ccc45)cn3)C2)CC1 [Example 246, {1-{1-[(1-Methyl-1H-pyrazol-5-yl)sulfonyl]piperidin-4-yl}-3-[4-(7H-pyrrolo[2,3-d]pyrimidin-4-yl)-1H-pyrazol-1-yl]azetidin-3-yl}acetonitrile] |
| 5.1 | N#CCC1(n2cc(-c3ncnc4[nH]ccc34)cn2)CN(C2CCN(S(=O)(=O)c3ccccc3C#N)CC2)C1 [Example 247, 2-[(4-{3-(cyanomethyl)-3-[4-(7H-pyrrolo[2,3-d]pyrimidin-4-yl)-1H-pyrazol-1-yl]azetidin-1-yl}piperidin-1-yl)sulfonyl]benzonitrile] |
| 5.2 | N#CCC1(n2cc(-c3ncnc4[nH]ccc34)cn2)CN(C2CCN(S(=O)(=O)c3cccc(C#N)c3)CC2)C1 [Example 248, 3-[(4-{3-(cyanomethyl)-3-[4-(7H-pyrrolo[2,3-d]pyrimidin-4-yl)-1H-pyrazol-1-yl]azetidin-1-yl}piperidin-1-yl)sulfonyl]benzonitrile] |
| 2.1 | N#CCC1(n2cc(-c3ncnc4[nH]ccc34)cn2)CN(C2CCN(S(=O)(=O)c3ccc(C#N)cc3)CC2)C1 [Example 249, 4-[(4-{3-(cyanomethyl)-3-[4-(7H-pyrrolo[2,3-d]pyrimidin-4-yl)-1H-pyrazol-1-yl]azetidin-1-yl}piperidin-1-yl)sulfonyl]benzonitrile] |
| 4.7 | CN(C)c1ccc(S(=O)(=O)N2CCC(N3CC(CC#N)(n4cc(-c5ncnc6[nH]ccc56)cn4)C3)CC2)cc1C#N [Example 250, 5-[(4-{3-(cyanomethyl)-3-[4-(7H-pyrrolo[2,3-d]pyrimidin-4-yl)-1H-pyrazol-1-yl]azetidin-1-yl}piperidin-1-yl)sulfonyl]-2-(dimethylamino)benzonitrile] |
